Patent publication US20240199683A1, “ANDROGEN RECEPTOR MODULATORS” (priority 2021, published 2024)

Key:
[1] = biological target: T1, human AR (Homo sapiens, UniProt P10275); experiment: human AR antagonist assay (Indigo Biosciences); type: cell-based
T1 construct: purchased Indigo Biosciences
T1 sequence (P10275 1-920): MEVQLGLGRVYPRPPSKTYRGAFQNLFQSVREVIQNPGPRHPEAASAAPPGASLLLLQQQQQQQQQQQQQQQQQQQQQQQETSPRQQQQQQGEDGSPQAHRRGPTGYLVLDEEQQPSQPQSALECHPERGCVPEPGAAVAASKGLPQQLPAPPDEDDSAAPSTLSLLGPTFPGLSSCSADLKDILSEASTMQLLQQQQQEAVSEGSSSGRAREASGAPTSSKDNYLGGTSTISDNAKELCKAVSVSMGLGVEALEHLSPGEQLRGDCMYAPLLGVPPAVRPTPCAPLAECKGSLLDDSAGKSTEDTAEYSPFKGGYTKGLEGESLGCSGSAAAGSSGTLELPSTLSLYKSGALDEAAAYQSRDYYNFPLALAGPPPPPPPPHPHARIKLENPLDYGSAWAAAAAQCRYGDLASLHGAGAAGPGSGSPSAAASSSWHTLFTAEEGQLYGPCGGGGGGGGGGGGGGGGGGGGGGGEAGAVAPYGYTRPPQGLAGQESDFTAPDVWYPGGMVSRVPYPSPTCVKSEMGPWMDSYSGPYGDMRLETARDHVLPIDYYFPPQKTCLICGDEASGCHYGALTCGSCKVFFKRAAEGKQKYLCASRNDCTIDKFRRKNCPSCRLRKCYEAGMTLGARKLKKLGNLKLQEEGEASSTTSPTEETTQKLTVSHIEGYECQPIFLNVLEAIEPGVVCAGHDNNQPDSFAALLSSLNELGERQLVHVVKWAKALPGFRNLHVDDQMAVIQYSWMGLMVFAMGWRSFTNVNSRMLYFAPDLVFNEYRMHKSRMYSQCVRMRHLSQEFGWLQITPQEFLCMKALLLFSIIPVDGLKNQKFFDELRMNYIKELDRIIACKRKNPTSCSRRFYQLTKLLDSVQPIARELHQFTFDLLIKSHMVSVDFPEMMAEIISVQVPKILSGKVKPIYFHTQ
Text: (§1) The activity of a compound can be determined using various known methods. For example, AR assays can be used. Such AR assays include binding assays using, for example, cells transfected with the human androgen receptor. Several cell based model systems that allow sensitive detection and monitoring of steroids or other compounds with AR bioactivity are known. Most cell based AR reporter models use transgenic gene constructs that include an androgen response element (ARE) that controls reporter gene (e.g., lucifersrase) expression. For example, a human AR Reporter Assay System is commercially available from Indigo Biosciecnes. The principle application of such an assay product is to quantify functional activities, either agonist or antagonist, that a compound may exert against the human androgen receptor. […] In addition, the anti-proliferative activity of a compound can be determined using various known methods, including in vitro and in vivo antiproliferative assays using cancer cell lines such as a prostate cancer cell line.
(§2) The activity of certain compounds were tested in a human AR agonist assay and a human AR antagonist assay (Indigo Biosciences).

[2] = biological target: T2, androgen receptor (Homo sapiens, UniProt P10275); experiment: Ki of Table A (method not described; AR binding assays mentioned generally)
T2 sequence (P10275 1-920): T1 sequence (P10275 1-920)
Text: as §1

[3] = biological target: T1, human AR; experiment: human AR agonist assay (Indigo Biosciences); type: cell-based
Text: as §1, §2

[4] = Table A, values match the human AR antagonist assay

| Structure (SMILES) | HillSlope ([1]; Table 4, antagonist mode) | IC50 [1, 4] | Ki [2] | EC50 [3] | IC50 ([1]; Table 4, antagonist mode) |
| --- | --- | --- | --- | --- | --- |
| C[C@]12CCC(=O)C=C1CCC1=C2CC[C@]2(C)C[C@H](O)[C@@H]3C[C@@]132 [Compound 201] | 1.375 | 0.218 µM | 1.4 µM |  |  |
| CC(C)(O)C(=O)Nc1ccc([N+](=O)[O-])c(C(F)(F)F)c1 [hydroxyflutamide, reference compound] | 1.282 |  |  |  |  |
| C[C@]12CC[C@@]3(C)C(=C1C[C@H](O)C2)CC[C@H]1CC(=O)CC[C@@H]13 [Compound 109] |  | 6.8 µM |  |  |  |
| C[C@]12CC[C@@]3(C)C(=C1C[C@@H](O)C2)CC[C@H]1CC(=O)CC[C@@H]13 [Compound 106] |  | 1.8 µM |  |  |  |
| C[C@]12CC[C@@]3(C)C(=C1C[C@H](O)C2)CCC1=CC(=O)CC[C@@H]13 [Compound 103, (9R,10S,13R,16R)-16-hydroxy-9,13-dimethyl-1,2,6,7,9,10,11,12,13,15,16,17-dodecahydro-3H-cyclopenta[a]phenanthren-3-one] |  |  |  | 8950 µM |  |
| C[C@]12CCC3=C(CC[C@@H]4CC(=O)CC[C@]34C)[C@@]13C[C@H]3[C@@H](O)C2 [Compound 203] | 1.202 | 1.18 µM |  |  | 1.18 µM |
| C[C@]12CCC3=C(CC[C@H]4CC(=O)CC[C@]34C)[C@@]13C[C@H]3[C@@H](O)C2 [Compound 202, (2S,2aR,3aR,5aS,9aS,11aR)-2-hydroxy-9a, 11a-dimethyl-1,2a,3,4,5a,6,8,9,9a,10,11,11a-dodecahydro-2H-cyclopropa[1,5]cyclopenta[1,2-a]phenanthren-7(5H)-one] | 1.360 | 0.061 µM | 0.837 µM |  | 0.0605 µM |
